We go through nine compounds from patent US11001820B2, “Delivery of therapeutic agents by a collagen binding protein” (THE BOARD OF TRUSTEES OF THE UNIVERSITY OF ARKANSAS, priority 2011, dated 2021).

Data set [1] can be described thus: Circular dichroism thermal denaturation of collagenous peptides. Conditions: triple helix thermostability by [θ]225, 0.3° C./min, 1 mg/ml in water. In kind it is physicochemical. On the procedure:
The triple helical conformation and the stability of the collagenous peptides were verified using CD spectroscopy (See FIGS. 3 and 4). CD spectra were recorded with a J-820 CD spectropolarimeter (JASCO Co., Hachioji, Japan) equipped with a Peltier thermo controller, using a 0.5-mm quartz cuvette and connected to a data station for signal averaging. All peptide samples were dissolved in water (1 mg/ml), and stored at 4° C. for 24 h. The spectra are reported in terms of ellipticity units per mole of peptide residues [θ]mrw. Thermostability of the triple helix was monitored by the [θ]225 values of each peptide with increasing temperature at the rate of 0.3° C./min.

The next data set has as its system engrafted C3H/Hej mouse. Briefly: Alopecia areata model. In kind it is in vivo. From the text:
Alopecia Areata is a disease of patchy hair loss due to autoimmune destruction of the hair follicles. We tested the efficacy of PTH-CBD in promoting regrowth of hair in an animal model of alopecia areata, the engrafted C3H/Hej mouse. In this model, hair loss develops variably over the first 2 months of life. Shown in FIG. 19 is the results of a single dose of PTH-CBD (320 mcg/kg subcutaneous) administered into the engrafted site, the center of the back, where there was maximal hair loss. Compared to vehicle control animals, which continued to lose hair at this site, animals receiving PTH-CBD began to show regrowth of hair within the next 1-4 days.

A short description of data set [2]: Tissue distribution of 35S-labelled PTH-CBD by whole-body autoradiography. It counts as in vivo, mice. The conditions noted are these: subcutaneous injection, 1 hour and 12 hours. How it is done:
Tissue distribution was assessed by administering ^35S-labelled PTH-CBD via subcutaneous injection, followed by whole mount frozen and whole-body autoradiography. PTH-CBD with a phosphorylation site between PTH(1-33) and the CBD was purified, activated and labeled with […] as described previously. Tamai et al. (2003) Infect Immun. 71:5371-5375. Approximately 10.8 mcg of ^35S-PTH-CBD (122 kcm/mcg) was injected subcutaneously in 7 week-old mice (32-35 g). Mice were sacrificed at 1 hour or 12 hours post-injection, and then frozen in dry ice-acetone. Frozen sections ([…]) were prepared with an autocryotome, dried at −20° C., and exposed to an image plate for 4 weeks. There appeared to be an initial distribution of ^35S-PTH-CBD to a broad area of skin around the site of injection, followed by a rapid redistribution to the skin of the entire animal, as well as to several other tissues (i.e. bone, intestine, bladder) (FIG. 11).

Another data set relates to ovarectomized rat. Briefly: Ovarectomized aged rats, single dose, sacrifice 6 months after therapy. It counts as in vivo. Conditions: 6 months after single dose 320 mcg/kg. How it is done: In this experiment, rats had their ovaries surgically removed at age 3 months. At age 9 months, rats were injected with either a single dose of PTH-CBD (320 mcg/kg) or vehicle control. Animals were sacrificed 6 months after therapy (age 15 months). […] Serum calcium was measured and there were no differences between groups (Vehicle: 13.5+/−1.1 vs. PTH-CBD: 14.3+/−1.1 mg/dl, NS). […] These findings indicate that a single injection of PTH-CBD can provide long-term suppression of endogenous PTH production, preventing the normal rise seen with age in the ovarectomized rat model, and thus may serve as a therapy for hyperparathyroidism.

The next data set concerns C57BL/6J mice. Briefly: Chemotherapy-induced alopecia (cyclophosphamide) in depilated mice. In kind it is in vivo. How it is done: We compared efficacy of CBD linked PTH agonists and antagonists in chemotherapy-induced alopecia, utilizing an experimental design published by Peters, et al., for non-CBD linked PTH compounds. Peters, et al. (2001) J Invest Dermatol 117:173-178. C57BL/6J mice (Jackson Laboratories, Bar Harbor, Me.) were depilated to synchronize the hair follicles, and cyclophosphamide (CYP, 150 mg/kg) was administered on day 9 to maximize the chemotherapy-induced damage. The agonist (PTH-CBD) and the antagonist (PTH(7-33)-CBD) were administered 2 days prior to chemotherapy, and given the long-term retention of the compounds in the skin, we administered only a single dose to cover the timing of the multiple injections of PTH agonist and antagonist in the study by Peters, et. al. The administered dose of CBD-linked compounds (320 mcg/kg) is well tolerated in mice. Ponnapakkam et al. (2011) Calcif 88:511-520. […].
We followed these studies by comparing the effects of different doses of PTH-CBD in chemotherapy-induced alopecia. In these studies, we applied the injections more distally on the back and applied a gray-scale analysis to quantify the amount of hair growth. Injecting more distally in the back allows us to compare regrowth of hair after PTH-CBD treatment with less interference from the normal hair regrowth, which normally proceeds from head to tail in mice.

Another data set has as its system C57/BL6J mice. Briefly: Depilation alopecia (waxing). In kind it is in vivo. From the text: The agonist PTH-CBD appears to increase hair growth by increasing the number of anagen phase hair follicles. As such, there is no reason to believe that hair growth effects should be limited to the chemotherapy model. We therefore tested both PTH-CBD and antagonist compound, PTH(7-33)-CBD, after removing hair from C57/BL6J mice by waxing (FIG. 18). […] Thus, it appears that agonist therapy is acting to promote more rapid regrowth of hair by promoting more rapid transition to the anagen phase, while the antagonist inhibited hair regrowth by blocking this transition.

A further data set concerns mice. Description: Chemotherapy-induced alopecia without depilation. In kind it is in vivo. On the procedure: While the depilated model of chemotherapy-induced alopecia provides a uniform model for comparison of drug effects, the depilation process is known to cause hair follicle injury, and may alter the response of the animals to the PTH-CBD administration. We therefore tested the effects of PTH-CBD in another model of chemotherapy-induced alopecia, where the animals were given 3 courses of cyclophosphamide therapy (50 mg/kg/wk), similar to the usual manner in which cancer patients might be treated. In this model, it takes much longer (4-6 months) for alopecia to develop.
In a second study, we compared the effects of PTH-CBD when given prophylactically, at the time of the first cycle of chemotherapy, vs. therapeutically, after the hair loss had developed. […] This is evident both visually and quantitatively in FIG. 17, using the same grey scale analysis used in our dose-response study.

For a further data set, the system named is androgenic alopecia. The conditions noted are these: long-term (10 years) therapy; cited from earlier work.

Take ^11PROXYL-(POG)3PCG(POG)4: the “Melting temperatures (Tm)” value in data set [1] came out at 28 °C.
Take PROXYL-(POG)3POA(POG)6: the “Melting temperatures (Tm)” value in data set [1] turned out to be 28 °C.
Same read-out and setting: the value for (POG)4POA(POG)5 was 29 °C.
Consider “PTH-CBD: first 33 amino acids of PTH linked directly to the collagen binding domain (SEQ ID NO: 1)”, for which the duration of response result in the data set on engrafted C3H/Hej mouse (single dose 320 mcg/kg) is “sustained during the 2 month course”. Further, the “time to regrowth of hair” value in the data set on engrafted C3H/Hej mouse (single dose 320 mcg/kg subcutaneous into engrafted site) was in the range of 1 to 4 days. Moreover, the tissue distribution entry in data set [2] was “distribution and retention to skin”. Further, in the data set on ovarectomized rat, the “Human intact PTH levels (serum levels of PTH-CBD)” value was “undetectable” and the “Rat intact PTH levels (endogenous PTH production)” value was “suppressed the normal increase in endogenous PTH levels”. In the data set with ovarectomized rat (NS vs vehicle), the serum calcium came to 14.3 ± 1.1 mg/dL. Besides, the “hair regrowth, gray-scale analysis” value in the data set on C57BL/6J mice (100, 320, 1000 mcg/kg) is on record as “dose-dependent effect”. Besides, the hair follicle histology entry in the data set with C57BL/6J mice (H&E, day 36, 320 mcg/kg) was “deeper rooting and reduced melanocyte clumping”. Further, in the data set on C57BL/6J mice (body, ears and tail), the “excess hair length or growth” value is recorded as “no evidence of excess hair length”. In the data set with C57BL/6J mice (day 36, 320 mcg/kg), the “Counts of anagen VI hair follicles per high-powered field” value is given as “higher number of hair follicles”. Moreover, in the data set on C57BL/6J mice (mouse, in vivo), the adverse effects result is reported as “no evidence of adverse effects” and the serum calcium entry was “no effect”. The “hair growth (photodocumentation)” value with C57BL/6J mice (single dose 320 mcg/kg, 2 days prior to CYP, day 36) is “far more effective at stimulating hair growth than was the antagonist”. Moreover, in the data set on C57/BL6J mice (after waxing, vehicle day 9), the anagen eruption came out at 7 days. In addition, the regrowth of hair entry in the data set on C57/BL6J mice (end of study (day 18)) was “more complete regrowth of hair”. Besides, in the data set on mice (grey scale analysis), the “effect on hair, prophylactic vs. therapeutic dosing” value was “effective in both instances”. In the data set with mice (single dose 320 mcg/kg subcutaneous prior to first of 3 cyclophosphamide courses), the hair loss result was “did not develop hair loss”.
Consider PROXYL-(POG)6POA(POG)3, for which, in data set [1], the “Melting temperatures (Tm)” value amounted to 27 °C.
On the same count and under the same terms, the value for PROXYL-(POG)5POA(POG)4 was 28 °C; that for PROXYL-(POG)4POA(POG)5 was 29 °C.
In the case of (POG)4POA(POG)5C-PROXYL, the “Melting temperatures (Tm)” value in data set [1] worked out at 30 °C.
Consider `CC(C)(C)NC(=O)[C@H]1CC[C@H]2[C@@H]3CC[C@H]4NC(=O)C=C[C@]4(C)[C@H]3CC[C@]12C` [Finasteride], for which, in the data set on androgenic alopecia, the response rates result is reported as “around 50%”.
